From PMC9775090, “Identification of Bioactive Peptides from Nannochloropsis oculata Using a Combination of Enzymatic Treatment, in Silico Analysis and Chemical Synthesis” (Biomolecules, 2022)
Entries after “also recorded” stand apart in the source; their conditions may differ. Read-outs that look alike come from different tables or passages of the source. Where no end group is shown, it is not given here.

Key:
ovine recombinant COX-1 = assay: Cyclooxygenase inhibition, cell free assay (COX-1); assay type: biochemical; settings: for COX-1 inhibition: assayed at 1 mg/mL, ovine recombinant COX-1
Experimental: (§1) In vitro assays to determine COX inhibition were performed using cell free assays as described previously. The synthesised peptides were incubated independently with ovine recombinant COX-1 (Cayman Chemicals, Hamburg, Germany) or human recombinant COX-2 (Cayman Chemicals, Hamburg, Germany). The assay was carried out in accordance with the manufacturer’s instructions. Resveratrol (Merck, Dublin, Ireland) was used as a positive control.

human recombinant COX-2 = assay: Cyclooxygenase inhibition, cell free assay (COX-2); assay type: biochemical; settings: for COX-2 inhibition: assayed at 1 mg/mL, human recombinant COX-2
Experimental: as §1

[1] = target: T1, Angiotensin-1-converting enzyme (ACE-1) (Homo sapiens, UniProt P12821); assay: ACE-1 inhibition, ACE kit-WST 96-well colorimetric assay; assay type: biochemical; settings: for Observed Bioactivity In Vitro (ACE-1): result in words; for % ACE-1 inhibition / inhibition at 1000 µg/mL: synthesised peptides assayed at 1 mg/mL, n = 3; for inhibition at 1000 µg/mL: read-out: % ACE-1 inhibition
T1 construct: purchased Tebu Bio (TebuBio Ltd., Peterborough, UK)
T1 sequence (P12821 30-1306): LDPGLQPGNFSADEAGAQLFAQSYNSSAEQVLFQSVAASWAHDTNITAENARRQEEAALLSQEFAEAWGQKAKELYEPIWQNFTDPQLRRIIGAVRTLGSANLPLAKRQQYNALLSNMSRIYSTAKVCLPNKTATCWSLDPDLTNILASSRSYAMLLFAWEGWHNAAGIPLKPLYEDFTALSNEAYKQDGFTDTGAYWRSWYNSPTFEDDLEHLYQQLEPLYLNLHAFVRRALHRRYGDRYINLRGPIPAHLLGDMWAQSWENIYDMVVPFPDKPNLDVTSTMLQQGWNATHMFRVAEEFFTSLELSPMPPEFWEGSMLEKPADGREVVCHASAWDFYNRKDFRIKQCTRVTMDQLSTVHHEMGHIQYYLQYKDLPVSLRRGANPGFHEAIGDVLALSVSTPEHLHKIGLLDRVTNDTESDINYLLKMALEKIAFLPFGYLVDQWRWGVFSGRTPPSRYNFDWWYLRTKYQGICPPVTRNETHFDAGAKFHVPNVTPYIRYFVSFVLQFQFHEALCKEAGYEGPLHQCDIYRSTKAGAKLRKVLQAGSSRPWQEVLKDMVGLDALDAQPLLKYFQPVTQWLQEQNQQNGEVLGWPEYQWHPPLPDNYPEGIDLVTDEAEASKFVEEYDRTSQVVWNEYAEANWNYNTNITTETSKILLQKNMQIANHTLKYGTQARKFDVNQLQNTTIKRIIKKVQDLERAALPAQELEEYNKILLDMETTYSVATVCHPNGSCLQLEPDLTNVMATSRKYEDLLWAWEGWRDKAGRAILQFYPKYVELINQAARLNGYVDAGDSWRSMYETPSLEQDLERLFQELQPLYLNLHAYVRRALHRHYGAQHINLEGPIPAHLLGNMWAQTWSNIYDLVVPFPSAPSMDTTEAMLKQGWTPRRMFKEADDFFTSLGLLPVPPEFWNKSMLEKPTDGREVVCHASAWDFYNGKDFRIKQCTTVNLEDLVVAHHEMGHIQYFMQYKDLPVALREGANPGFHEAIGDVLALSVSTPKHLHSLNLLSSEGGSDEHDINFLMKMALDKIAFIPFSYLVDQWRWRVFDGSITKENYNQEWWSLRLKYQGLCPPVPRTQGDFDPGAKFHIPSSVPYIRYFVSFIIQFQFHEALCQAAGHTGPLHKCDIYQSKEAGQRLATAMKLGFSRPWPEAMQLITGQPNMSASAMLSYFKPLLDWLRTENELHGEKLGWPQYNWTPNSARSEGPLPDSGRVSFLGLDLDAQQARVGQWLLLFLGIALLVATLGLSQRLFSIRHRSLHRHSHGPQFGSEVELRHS
Experimental: The ACE-I inhibitory activity was determined using a 96 well plate bioassay supplied by Tebu-Bio (TebuBio Ltd., Peterborough, UK) in accordance with the manufacturers’ instructions. Briefly, the enzyme working solution and indicator working solution were prepared according to the manufacturer’s instructions. […] Blanks were included. 20 µL of the substrate buffer was added to each well, followed by 20 µL of the enzyme working solution to experimental wells and blank one wells. The plate was incubated at 37 °C for 1 h. After incubation, 200 µL indicator working solution was added to each well, and the plate was incubated at room temperature for 10 min. […] Absorbance was measured using a plate reader at 450 nm. For IC50 determination, the ACE kit-WST was also used.

Escherichia coli DSM 301 = assay: Modified agar well diffusion assay, E. coli; assay type: cell-based; settings: 1 mg/mL in 30 µL well, 24 h
Experimental: (§2) The antibacterial activity of synthesised peptides was determined using an overnight culture of the pathogenic bacteria in a modified agar well diffusion assay as described previously. A zone of inhibition around wells containing the peptides indicates antibacterial activity. Escherichia coli DSM 301 and Bacillus cereus DSM 31 were used as indicator pathogen strains. Ampicillin (Merck, Dublin, Ireland) and Cecropin P1 (Merck, Dublin Ireland) were used as positive control antibiotics and antimicrobial peptides. Positive controls or test peptides were incubated (concentration 1 mg/mL) in a well (30 µL capacity) on the agar plate which was seeded with the pathogenic strain at an overnight culture to media ratio of 100 µL: 500 mL (v:v). Plates were left at 4 °C for 4 h and subsequently incubated at the optimum culture temperature and conditions for the pathogen in question. After 24 h, zones of inhibition indicated the presence of antibacterial activity.

Bacillus cereus DSM 31 = assay: Modified agar well diffusion assay, B. cereus; assay type: cell-based; settings: 1 mg/mL in 30 µL well, 24 h
Experimental: as §2

ACE-1 = settings: cited from earlier work
Experimental: Limited studies exist concerning the use of Nannochloropsis sp. as a source of protein, protein hydrolysates or bioactive peptides. Recently, […] et al. […] Enzymatic treatment of biomass is a useful strategy for generation of bioactive peptide containing concentrates. […] These peptides were selected based on their Peptide Ranker scores and amino acid sequences. The ACE-1 and COX-1/COX-2 assays were performed as described previously described using commercially available kits from Cambridge BioSciences (Cambridge BioSciences, Cambridge, UK).

[2] = peptides from pepsin treated Nannochloropsis oculata

Molecule: Oc1ccc(/C=C/c2cc(O)cc(O)c2)cc1 [Resveratrol, reference compound]
- COX-1 inhibition (ovine recombinant COX-1): 78.41 (±2.92) %
- COX-2 inhibition (human recombinant COX-2): 70.41%

Molecule: AGDVGFDPLGF
- Observed Bioactivity In Vitro (ACE-1) [1]: ACE-1 inhibitory
- Antibacterial activity against E. coli (zone of inhibition) (Escherichia coli DSM 301): having antibacterial activity in vitro against E. coli; also recorded: produced a zone of inhibition; also recorded: Antibacterial activity against E. coli at a concentration of 1 mg/mL
- Antibacterial activity against B. cereus (zone of inhibition) (Bacillus cereus DSM 31): not B. cereus

Molecule: GMNNLTP [GMNNLTP]
- IC50 (ACE-1; [2]): 123 µM

Molecule: KGGGSGANGGRL [peptide identified in Nannochloropsis sp. xylanase permeate, chemically synthesised; spelt three ways]
- % ACE-1 inhibition ([1]; listed as KGGGGGANGGRL): 35.81%

Molecule: LVGADAHALGVICS [peptide corresponding to a transcriptor initiation protein from Porphyridium sp., chemically synthesised]
- Observed Bioactivity In Vitro (ACE-1) [1]: ACE-1 inhibition

Molecule: Leu-Glu-Gln [LEQ]
- IC50 (ACE-1; [2]): 173 µM

Molecule: Leu-Val-Thr-Val-Met
- IC50 (ACE-1; purified peptide from Alcalase hydrolysate): 18 µM

Molecule: NKFPYTTQ [NKFPYTTQ]
- inhibition at 1000 µg/mL [1]: 76.8%

Molecule: VVGAVGAADLL [peptide corresponding to HEAT repeat-containing protein 1 of Ectocarpus siliculosus, chemically synthesised]
- Observed Bioactivity In Vitro (ACE-1) [1]: ACE-1 inhibition
- % ACE-1 inhibition [1]: 25.73%

Molecule: VYNKFPYTTQ [VYNKFPYTTQ]
- inhibition at 1000 µg/mL [1]: 81.7%

Molecule: YANDLLCMPI [peptide identified in Nannochloropsis sp. xylanase permeate, chemically synthesised]
- COX-1 inhibition (ovine recombinant COX-1): 34.5%
- Observed Bioactivity In Vitro (COX-1) (ovine recombinant COX-1; result in words): COX-1 and COX-2 inhibition
- COX-2 inhibition (human recombinant COX-2): 47.65%
- Observed Bioactivity In Vitro (COX-2) (human recombinant COX-2; result in words): COX-1 and COX-2 inhibition
